Experimental data published in patent publication US6306881A, “Anti-inflammatory agents” (British Biotech Pharmaceuticals, priority 1998, dated 2001).

Experiments:
[1] = system: cells; conditions: cited from earlier work
[2] = system: LTA4 hydrolase; conditions: isolated enzyme; T. D. Penning et al, 1995; cited from earlier work
[3] = target: T1, LTA4-hydrolase (Rattus norvegicus, UniProt P30349); test: Inhibition of LTA4 hydrolase activity (LTB4 formation by radioimmunoassay); format: biochemical; conditions: crude fraction from rat lung, 1 minute at 37° C.
T1 construct: was prepared as a crude fraction from rat lung tissue; from tissue; host or cells: rat lung tissue, crude fraction
T1 sequence (P30349 1-611): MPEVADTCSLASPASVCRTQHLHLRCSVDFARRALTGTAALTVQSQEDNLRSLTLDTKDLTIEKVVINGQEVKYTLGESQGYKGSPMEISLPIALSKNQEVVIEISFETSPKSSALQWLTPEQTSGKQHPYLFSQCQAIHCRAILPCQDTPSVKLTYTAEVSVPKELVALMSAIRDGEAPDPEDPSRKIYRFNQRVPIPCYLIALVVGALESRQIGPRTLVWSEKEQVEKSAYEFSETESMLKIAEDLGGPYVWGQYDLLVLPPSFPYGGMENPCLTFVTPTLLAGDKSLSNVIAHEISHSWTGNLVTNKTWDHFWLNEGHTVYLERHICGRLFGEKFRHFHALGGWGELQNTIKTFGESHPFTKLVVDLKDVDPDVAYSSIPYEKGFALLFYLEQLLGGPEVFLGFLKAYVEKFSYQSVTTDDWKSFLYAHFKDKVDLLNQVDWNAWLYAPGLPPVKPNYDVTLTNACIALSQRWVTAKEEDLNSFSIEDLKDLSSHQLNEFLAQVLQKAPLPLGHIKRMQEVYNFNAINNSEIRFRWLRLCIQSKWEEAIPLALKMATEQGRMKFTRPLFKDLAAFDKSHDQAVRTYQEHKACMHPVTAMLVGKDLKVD
Description: LTA4 -hydoiase was prepared as a crude fraction from rat lung tissue. The sodium salt of LTA4 was incubated with the enzyme and test compounds at 10 μM for 1 minute at 37° C. The reaction was terminated by the addition of ice-cold methanol. Formation of LTB4 was assessed by radioimmunoassay. Results are expressed as a percentage inhibition of LTA4 hydrolase activity.

[4] = system: male Lewis rats; test: Rat Adjuvant Arthritis Model; format: in vivo; conditions: Day 10 to Day 21, vs vehicle, P<0.05
Description: Rat Adjuvant Arthritis Model
Adjuvant arthritis was induced in male Lewis rats on Day 0, using a suspension of mycobacterium butyncum in mineral oil, inoculated subcutaneously, into the base of the tail. The volume of the hind paws was measured regularly to assess the time course of disease progression. […] Nine animals were allocated to each group. Animals received their first treatment on Day 10, either vehicle (2% DMSO in PBSiTween (0.01%v/v)) or test compound, formulated as a suspension in the vehicle. Treatment was administered as an intraperitoneal bolus injection, once daily, for the duration of the study. The study was ended on Day 21. The percent increase in mean paw volume from Day 10 to Day 21 was calculated for each animal and the compound treated groups compared to the vehicle treated control group.

[5] = system: Leukotriene Synthesis by Rat Basophilic Leukaemia Cells; test: Inhibition of Leukotriene Synthesis by Rat Basophilic Leukaemia Cells (RBL-1, A23187 stimulated, LTB4); format: cell-based; conditions: RBL-1 cells, 4.75 hours preincubation, 10 μM A23187, 15 minutes at 37° C., value estimated, read-out: IC50 (leukotriene B4 synthesis)
Description: Inhibition of Leukotriene Synthesis by Rat Basophilic Leukaemia Cells
The rat basophilic leukaemia cell line RBL-1 was obtained from ATCC or ECACC and cultured in Dulbecco's modified Eagle's medium (DMEM) supplemented with 10% foetal bovine serum, non-essential amino acids, sodium pyruvate, penicillin, streptomycin and 2mM glutamine, at 37° C. in an atmosphere of 5% CO2 in air, as recommended by the culture collection.
RBL-1 cells were harvested during log growth, washed and resuspended in Hanks Balanced Salt Solution, without calcium chloride and magnesium chloride, supplemented with 10% foetal bovine serum and penicillin, streptomycin, and 2mM glutamine and adjusted to a final cell concentration of 1.25×10^5 cells/ml. Cells incubated in the presence of the appropriate concentration of inhibitor or vehicle for 4.75 hours at 37° C. Cells then transferred to ice for 15 minutes. Cells washed by centrifugation and resuspension in prechilled Phosphate Buffered Saline, with calcium chloride and magnesium chloride, supplemented with the appropriate concentration of test sample. […]
Treated cells then exposed to 10 μM A23187 for 15 minutes at 37° C. […] The levels of leukotriene B4 then determined in the cell free supernatant using the Leukotriene B4 [^3 H] assay system from Amersham Pharmacia Biotech.

Row | SMILES | ability to penetrate cells [1] | LTA4 hydrolase inhibitory activity [2] | inhibition at 10 µM [3] | inhibition of paw swelling ([4]; 30mg/kg i.p. once daily) | inhibition of paw swelling ([4]; 100mg/kg i.p. once daily) | IC50 [5]
1 | C[C@H](CS)C(=O)N1CCC[C@H]1C(=O)O [captopril] | unable to effectively penetrate cells | exhibit LTA4 hydrolase inhibitory activity against isolated enzyme | – | – | – | –
2 | C=CC[C@H](C(=O)NO)[C@@H](CC(C)C)C(=O)N[C@H](C(=O)OC1CCCC1)c1ccccc1 [Example 40, 2S-(3S-Hydroxycarbamoyl-2R-isobutyl-hex-5-enoylamino)-2-phenylethanoic acid cyclopentyl ester] | – | – | 75% | – | – | –
3 | C=CC[C@H](C(=O)NO)[C@@H](CC(C)C)C(=O)N[C@@H](Cc1ccccc1)C(=O)OC1CCCC1 [Example 19, 2S-(3S-Hydroxycarbamoyl-2R-isobutyl-hex-5-enoylamin)-3-phenylpropionic acid cyclopentyl ester] | – | – | 78% | 60% | 77% | 2 nM
4 | C[C@H](NC(=O)[C@@H](CC(=O)NO)Cc1ccccc1)C(=O)O [kelatorphan] | unable to effectively penetrate cells | exhibit LTA4 hydrolase inhibitory activity against isolated enzyme | 80% | – | – | 350 nM
5 | CC(C)C[C@H](NC(=O)[C@@H](O)[C@H](N)Cc1ccccc1)C(=O)O [bestatin] | unable to effectively penetrate cells | exhibit LTA4 hydrolase inhibitory activity against isolated enzyme | – | – | – | –
